EC50 and Emax data for 2 molecules are collected here from publication PMC2099433, “The binding site for neohesperidin dihydrochalcone at the human sweet taste receptor” (BMC Structural Biology, 2007).

Changes are numbered by the printed parent chain. Where a SMILES comes first, the peptide text is derived from it.

The target of assay [1] is T1, hTAS1R2 + hTAS1R3 L782A^6.55 (Homo sapiens, UniProt Q7RTX0+Q8TE23, L782A).
T1 construct: expressed in transfected cells; host or cells: HEK293T cells stably expressing G16Gust44
T1 sequence (Q8TE23 20-839): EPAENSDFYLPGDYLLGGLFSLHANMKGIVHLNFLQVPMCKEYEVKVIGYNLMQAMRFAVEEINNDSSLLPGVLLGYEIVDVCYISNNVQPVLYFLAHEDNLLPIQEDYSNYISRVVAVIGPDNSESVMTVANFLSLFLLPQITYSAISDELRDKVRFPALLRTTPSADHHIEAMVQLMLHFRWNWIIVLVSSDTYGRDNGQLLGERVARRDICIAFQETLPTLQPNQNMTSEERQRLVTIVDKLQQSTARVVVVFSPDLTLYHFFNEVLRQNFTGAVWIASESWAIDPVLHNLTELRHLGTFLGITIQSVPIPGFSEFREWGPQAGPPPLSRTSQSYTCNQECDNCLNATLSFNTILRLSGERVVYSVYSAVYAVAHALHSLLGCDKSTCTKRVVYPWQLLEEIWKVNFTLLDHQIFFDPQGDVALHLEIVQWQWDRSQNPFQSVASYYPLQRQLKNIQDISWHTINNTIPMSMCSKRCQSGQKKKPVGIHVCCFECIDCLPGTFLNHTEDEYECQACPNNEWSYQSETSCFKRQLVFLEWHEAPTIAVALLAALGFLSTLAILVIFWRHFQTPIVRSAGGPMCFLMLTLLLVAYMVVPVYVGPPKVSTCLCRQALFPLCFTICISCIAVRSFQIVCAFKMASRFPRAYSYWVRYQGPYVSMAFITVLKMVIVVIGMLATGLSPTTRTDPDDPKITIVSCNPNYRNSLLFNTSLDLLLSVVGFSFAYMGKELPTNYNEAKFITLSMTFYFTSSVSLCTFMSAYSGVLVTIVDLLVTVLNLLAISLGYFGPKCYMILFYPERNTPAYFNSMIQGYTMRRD
T1 sequence (Q7RTX0 21-852 L782A): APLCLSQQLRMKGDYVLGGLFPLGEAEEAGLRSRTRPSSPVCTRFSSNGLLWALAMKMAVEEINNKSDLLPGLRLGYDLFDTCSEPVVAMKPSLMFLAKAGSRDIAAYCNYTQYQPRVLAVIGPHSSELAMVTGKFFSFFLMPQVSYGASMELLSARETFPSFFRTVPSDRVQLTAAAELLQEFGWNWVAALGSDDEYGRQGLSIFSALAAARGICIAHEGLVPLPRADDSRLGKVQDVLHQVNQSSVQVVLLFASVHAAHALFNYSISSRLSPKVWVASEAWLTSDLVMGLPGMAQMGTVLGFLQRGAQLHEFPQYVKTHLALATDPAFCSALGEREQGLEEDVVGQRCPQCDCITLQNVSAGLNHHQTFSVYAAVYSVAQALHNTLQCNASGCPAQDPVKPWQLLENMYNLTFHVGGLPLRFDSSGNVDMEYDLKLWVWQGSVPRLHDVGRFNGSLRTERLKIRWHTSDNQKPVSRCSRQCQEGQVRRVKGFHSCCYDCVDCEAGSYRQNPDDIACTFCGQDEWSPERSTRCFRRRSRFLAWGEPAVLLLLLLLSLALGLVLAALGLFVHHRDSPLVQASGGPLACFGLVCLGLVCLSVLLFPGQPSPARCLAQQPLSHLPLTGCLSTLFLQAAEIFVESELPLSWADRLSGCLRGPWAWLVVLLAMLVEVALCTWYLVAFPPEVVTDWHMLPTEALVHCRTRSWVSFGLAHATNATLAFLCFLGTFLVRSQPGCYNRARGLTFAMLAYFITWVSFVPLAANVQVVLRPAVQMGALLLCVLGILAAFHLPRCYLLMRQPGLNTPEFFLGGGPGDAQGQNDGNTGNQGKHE
Kind of assay: Calcium response (FLIPR), hTAS1R3 mutant coexpressed with hTAS1R2. The assay is classed as cell-based. Conditions: variant L782A^6.55; for EC50: (>) EC50 not calculable because saturation is not reached; for Emax: read-out: maximal signal (% of wt). The essentials:
(§1)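 Each mutant receptor pair was expressed transiently in G16Gust44-expressing HEK293T cells; stimuli dissolved in C1 solution triggered calcium responses, recorded by fluorometric imaging and scaled to baseline fluorescence (ΔF/F) after mock correction, from at least three experiments run in duplicate.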

Assay [2] concerns the target T2, hTAS1R2 + hTAS1R3 Q636A^3.28 (Homo sapiens, UniProt Q7RTX0+Q8TE23, Q636A).
T2 construct: expressed in transfected cells; host or cells: HEK293T cells stably expressing G16Gust44
T2 sequence (Q8TE23 20-839): T1 sequence (Q8TE23 20-839)
T2 sequence (Q7RTX0 21-852 Q636A): T1 sequence (Q7RTX0 21-852 L782A) with Q616A, A762L
Described as above. The assay is classed as cell-based. Conditions: variant Q636A^3.28; for Emax: read-out: maximal signal (% of wt). Put shortly:
as §1

As to `COc1ccc(CCC(=O)c2c(O)cc(O[C@@H]3O[C@H](CO)[C@@H](O)[C@H](O)[C@H]3O[C@@H]3O[C@@H](C)[C@H](O)[C@@H](O)[C@H]3O)cc2O)cc1O` [NHDC, neohesperidin dihydrochalcone], the EC50 was above 3 mM in assay [1] and 300 ± 200 µM in assay [2]. For the same molecule, the Emax was determined as 50 ± 11% in assay [1] and 61 ± 29% in assay [2].

With `COC(=O)[C@H](Cc1ccccc1)NC(=O)[C@@H](N)CC(=O)O` [aspartame] (HELM PEPTIDE1{D.F.[CO[*:1]]}$$$$V2.0), in assay [1], the EC50 is 1.7 ± 0.3 mM and the Emax is 95 ± 90%. For the same molecule, in assay [2], the EC50 stood at 1100 ± 100 µM and the Emax came out at 70 ± 18%.
